Nine molecules from ChEMBL document CHEMBL5230100, “Novel quinazoline-based EGFR kinase inhibitors: A review focussing on SAR and molecular docking studies (2015-2019)” (Eur J Med Chem, 2020) can be followed below.

Series [1] concerns the target T1, Epidermal growth factor receptor (Homo sapiens, UniProt P00533). The series can be described thus: Inhibition of EGFR (unknown origin) incubated for 10 mins in presence of ATP by mobility shift assay.
Series [2] deals with T2, Epidermal growth factor receptor (Homo sapiens, UniProt P00533, T790M/L858R). The series can be described thus: Inhibition of EGFR L858R/T790M mutant (unknown origin) incubated for 10 mins in presence of ATP by mobility shift assay.
The subject of a further series is PC-3. The series can be described thus: Antiproliferative activity against human PC-3 cells assessed as cell growth inhibition incubated for 72 hrs by MTT assay. To be noted: PC-3, 72 h. In kind it is functional, cell-based. (Tetrazolium assays rely on reduction of a dye to a coloured formazan, in cell work by metabolically active cells.)
The test system of a further series is MCF7. The series can be described thus: Antiproliferative activity against human MCF7 cells assessed as cell growth inhibition incubated for 72 hrs by MTT assay. Type of series: functional, cell-based. To be noted: MCF7, 72 h.
For a further series, the system named is HepG2. Briefly: Antiproliferative activity against human HepG2 cells assessed as cell growth inhibition incubated for 72 hrs by MTT assay. Type of series: functional, cell-based. The conditions noted are these: HepG2, 72 h.
In series [3] the test system is A549. Briefly: cells. In kind it is functional, cell-based. The conditions noted are these: Homo sapiens, A549, 72 h.
Description: Antiproliferative activity against human A549 cells assessed as cell growth inhibition incubated for 72 hrs by MTT assay
For series [4], the system named is A549. The series can be described thus: Induction of apoptosis in human A549 cells measured after 48 hrs by Annexin V-FITC/ Propidium iodide staining based flow cytometry relative to control. In kind it is functional. (In general: In flow cytometry, cells or beads pass a laser one at a time.)
Series [5] deals with A-431. Briefly: Antiproliferative activity against human A-431 cells assessed as cell growth inhibition incubated for 24 hrs by MTT assay. Type of series: functional.
The target of the next series is Caspase-3 (Homo sapiens) (UniProt P42574). Briefly: Activation of caspase 3 (unknown origin). The conditions noted are these: filed as activator.
Series [6] is described as follows: AUC (0 to infinity) in Sprague-Dawley rat plasma at 10 mg/kg, iv by LC-MS/MS analysis. Type of series: ADME, organism-based. More on the design: dose 10 mg/kg, route iv.
A short description of series [7]: Volume of distribution at steady state in Sprague-Dawley rat at 10 mg/kg, iv by LC-MS/MS analysis. In kind it is ADME, organism-based. To be noted: in vivo.
Series [8] in a line: Half life in Sprague-Dawley rat plasma at 10 mg/kg, iv by LC-MS/MS analysis. To be noted: in vivo. Type of series: ADME, organism-based.
Series [9] in a line: Half life in human liver microsomes by LC-MS/MS analysis. In kind it is ADME. A general note: Liver microsomes are vesicles of endoplasmic reticulum, rich in cytochrome P450 enzymes.
Series [10] in a line: AUClast in Sprague-Dawley rat plasma at 10 mg/kg, iv by LC-MS/MS analysis. More on the design: dose 10 mg/kg, route iv. In kind it is ADME, organism-based.
A short description of series [11]: MRT (0 to 24 hrs) in Sprague-Dawley rat plasma at 10 mg/kg, iv by LC-MS/MS analysis. Type of series: ADME, organism-based.
For series [12], the target named is Epidermal growth factor receptor (Homo sapiens, UniProt P00533, 746-750DEL).
The subject of the next series is PC-9. Briefly: cells. Type of series: functional, cell-based. To be noted: Homo sapiens, PC-9, 72 h.
The test system of series [13] is A-431. Briefly: Antiproliferative activity against human A-431 cells assessed as cell growth inhibition incubated for 72 hrs by SRB assay. Type of series: functional, cell-based. To be noted: A-431, 72 h.
The subject of another series is SW480. The series can be described thus: Antiproliferative activity against human SW480 cells assessed as cell growth inhibition by MTT assay. Type of series: functional, cell-based.
The subject of series [14] is A549. The series can be described thus: cells. The conditions noted are these: Homo sapiens.
Description: Antiproliferative activity against human A549 cells assessed as cell growth inhibition by MTT assay
Series [15] deals with NCI-H1975. The series can be described thus: Antiproliferative activity against human NCI-H1975 cells assessed as cell growth inhibition by MTT assay. Type of series: functional, cell-based.
Series [16] deals with A-431. Briefly: Antiproliferative activity against human A-431 cells assessed as cell growth inhibition by MTT assay. In kind it is functional, cell-based.
The subject of series [17] is NCI-H1975. Briefly: Antiproliferative activity against human NCI-H1975 cells assessed as cell growth inhibition incubated for 72 hrs by MTT assay. Type of series: functional, cell-based. The conditions noted are these: NCI-H1975, 72 h.
Another series in a line: cells. The conditions noted are these: Homo sapiens, HBE, 72 h. In kind it is functional, cell-based.
Series [18] has as its system A-431. The series can be described thus: cells. In kind it is functional, cell-based. The conditions noted are these: Homo sapiens, A-431, 72 h.
Description: Antiproliferative activity against human A-431 cells assessed as cell growth inhibition incubated for 72 hrs by MTT assay
In series [19] the target is Epidermal growth factor receptor (Homo sapiens, UniProt P00533, L858R/T790M).
Another series has as its system HCC827. The series can be described thus: cells. Type of series: functional, cell-based. To be noted: Homo sapiens, HCC827, 72 h.
The test system of series [20] is A549. Briefly: cells. Type of series: functional, cell-based. To be noted: Homo sapiens, A549, 48 h.
Description: Antiproliferative activity against human A549 cells assessed as cell growth inhibition incubated for 48 hrs by MTT assay
The target of series [21] is T1, Epidermal growth factor receptor.
In series [22] the test system is A-431. The series can be described thus: cells. In kind it is functional, cell-based. To be noted: Homo sapiens, A-431, 48 h.
Description: Antiproliferative activity against human A-431 cells assessed as cell growth inhibition incubated for 48 hrs by MTT assay
The test system of series [23] is MDA-MB-231. The series can be described thus: Antiproliferative activity against human MDA-MB-231 cells assessed as cell growth inhibition incubated for 48 hrs by MTT assay. In kind it is functional, cell-based. The conditions noted are these: MDA-MB-231, 48 h.
Series [24] concerns the target T2, Epidermal growth factor receptor.
The target of series [25] is T1, Epidermal growth factor receptor. The source holds these as a separate data set.
The test system of series [26] is MDA-MB-231. Briefly: Antiproliferative activity against human MDA-MB-231 cells assessed as cell growth inhibition incubated for 24 hrs by MTT assay. The conditions noted are these: MDA-MB-231, 24 h. In kind it is functional, cell-based.

T1 sequence (P00533 whole entry): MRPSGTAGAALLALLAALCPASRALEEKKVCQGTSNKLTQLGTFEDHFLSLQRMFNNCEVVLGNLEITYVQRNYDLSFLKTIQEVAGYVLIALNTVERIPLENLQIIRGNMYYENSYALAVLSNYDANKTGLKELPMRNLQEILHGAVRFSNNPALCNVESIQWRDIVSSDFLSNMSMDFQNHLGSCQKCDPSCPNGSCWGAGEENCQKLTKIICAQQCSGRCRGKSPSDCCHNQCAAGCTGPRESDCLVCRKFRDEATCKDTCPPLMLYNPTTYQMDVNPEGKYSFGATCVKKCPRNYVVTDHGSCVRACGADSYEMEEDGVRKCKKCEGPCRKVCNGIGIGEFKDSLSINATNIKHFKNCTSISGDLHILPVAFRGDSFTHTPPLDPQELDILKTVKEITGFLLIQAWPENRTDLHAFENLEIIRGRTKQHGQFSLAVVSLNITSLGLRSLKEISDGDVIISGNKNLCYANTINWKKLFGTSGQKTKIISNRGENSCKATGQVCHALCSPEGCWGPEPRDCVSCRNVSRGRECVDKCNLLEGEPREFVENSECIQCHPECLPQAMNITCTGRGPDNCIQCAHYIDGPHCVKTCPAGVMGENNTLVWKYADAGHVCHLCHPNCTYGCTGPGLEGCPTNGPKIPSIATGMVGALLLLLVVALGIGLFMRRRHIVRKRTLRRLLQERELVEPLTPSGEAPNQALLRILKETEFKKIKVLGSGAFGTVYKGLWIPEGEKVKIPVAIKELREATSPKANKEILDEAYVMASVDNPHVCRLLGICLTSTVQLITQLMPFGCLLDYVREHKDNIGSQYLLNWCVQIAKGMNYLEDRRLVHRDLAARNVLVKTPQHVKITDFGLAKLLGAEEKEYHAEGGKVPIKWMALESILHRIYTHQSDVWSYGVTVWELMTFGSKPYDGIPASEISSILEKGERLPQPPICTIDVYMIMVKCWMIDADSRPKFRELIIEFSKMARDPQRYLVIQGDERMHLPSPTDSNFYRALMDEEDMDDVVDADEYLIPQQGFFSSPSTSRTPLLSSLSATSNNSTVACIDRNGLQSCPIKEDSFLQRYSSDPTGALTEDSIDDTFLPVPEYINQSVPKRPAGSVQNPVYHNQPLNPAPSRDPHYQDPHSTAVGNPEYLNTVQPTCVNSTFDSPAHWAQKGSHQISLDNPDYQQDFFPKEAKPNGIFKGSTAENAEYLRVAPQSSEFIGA
T2 sequence (P00533 25-1210 T790M/L858R limits assumed): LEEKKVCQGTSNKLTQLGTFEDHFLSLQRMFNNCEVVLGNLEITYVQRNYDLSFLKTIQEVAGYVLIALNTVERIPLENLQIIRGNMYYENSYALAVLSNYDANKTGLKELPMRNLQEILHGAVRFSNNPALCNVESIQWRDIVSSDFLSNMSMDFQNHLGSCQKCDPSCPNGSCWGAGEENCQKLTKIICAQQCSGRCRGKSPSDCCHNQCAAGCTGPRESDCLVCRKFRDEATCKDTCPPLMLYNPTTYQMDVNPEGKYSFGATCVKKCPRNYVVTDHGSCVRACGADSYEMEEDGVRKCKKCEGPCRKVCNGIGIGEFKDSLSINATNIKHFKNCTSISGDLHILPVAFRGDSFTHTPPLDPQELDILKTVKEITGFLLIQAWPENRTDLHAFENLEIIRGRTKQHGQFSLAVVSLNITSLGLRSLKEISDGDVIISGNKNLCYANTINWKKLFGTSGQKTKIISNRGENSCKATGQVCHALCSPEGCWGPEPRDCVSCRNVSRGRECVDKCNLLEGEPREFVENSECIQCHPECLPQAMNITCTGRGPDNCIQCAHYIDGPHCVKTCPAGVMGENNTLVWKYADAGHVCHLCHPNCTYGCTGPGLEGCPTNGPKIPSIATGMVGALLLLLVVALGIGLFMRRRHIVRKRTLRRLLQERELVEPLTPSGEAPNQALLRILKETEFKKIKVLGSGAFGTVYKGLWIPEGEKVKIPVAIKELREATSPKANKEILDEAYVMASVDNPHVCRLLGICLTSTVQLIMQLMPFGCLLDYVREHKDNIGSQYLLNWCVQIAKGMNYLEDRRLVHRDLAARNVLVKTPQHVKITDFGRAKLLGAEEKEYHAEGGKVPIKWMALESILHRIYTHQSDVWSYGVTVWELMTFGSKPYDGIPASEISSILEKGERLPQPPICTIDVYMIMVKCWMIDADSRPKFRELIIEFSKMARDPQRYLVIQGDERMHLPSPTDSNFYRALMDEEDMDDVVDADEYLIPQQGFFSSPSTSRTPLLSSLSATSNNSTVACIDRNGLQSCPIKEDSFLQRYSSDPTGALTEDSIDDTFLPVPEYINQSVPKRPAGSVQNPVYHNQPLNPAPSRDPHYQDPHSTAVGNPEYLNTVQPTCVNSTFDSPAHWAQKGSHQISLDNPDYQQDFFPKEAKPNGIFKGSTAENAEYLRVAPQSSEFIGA
Sequence of Caspase-3 (Homo sapiens) (P42574 29-175 limits assumed): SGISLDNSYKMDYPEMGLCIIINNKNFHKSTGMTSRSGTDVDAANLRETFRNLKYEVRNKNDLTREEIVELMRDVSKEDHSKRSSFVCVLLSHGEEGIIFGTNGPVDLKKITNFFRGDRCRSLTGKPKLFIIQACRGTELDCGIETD
Sequence of Caspase-3 (Homo sapiens) (P42574 176-277 limits assumed): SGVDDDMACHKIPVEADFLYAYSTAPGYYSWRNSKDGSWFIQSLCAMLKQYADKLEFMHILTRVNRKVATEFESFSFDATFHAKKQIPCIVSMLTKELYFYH
Sequence of Epidermal growth factor receptor (Homo sapiens, UniProt P00533, 746-750DEL) (P00533 whole entry, looked up, stated change not applied): as the sequence (P00533 whole entry) above
Sequence of Epidermal growth factor receptor (Homo sapiens, UniProt P00533, L858R/T790M) (P00533 25-1210 T790M/L858R limits assumed): as the sequence (P00533 25-1210 T790M/L858R limits assumed) above
Description for HCC827: Antiproliferative activity against human HCC827 cells assessed as cell growth inhibition incubated for 72 hrs by MTT assay
Description for PC-9: Antiproliferative activity against human PC-9 cells assessed as cell growth inhibition incubated for 72 hrs by SRB assay

On to `CN(C)CCn1cccc1/C=N/NC(=O)Nc1cc2c(Nc3ccc(F)c(Cl)c3)ncnc2cc1O[C@H]1CCOC1`, for which the IC50 in [1] turned out to be 0.05 nM; in series [2], 5.6 nM; with PC-3 it was 3840 nM; in the series on MCF7 it was 4820 nM; in the series with HepG2, 40 nM; in the series on A549 [3] it was 1840 nM.

Take `C#Cc1cccc(Nc2ncnc3cc(OCCOC)c(OCCOC)cc23)c1` [ERLOTINIB]: the Activity in the series with A549 [4] came out at 53.9%; at Caspase-3 (Homo sapiens) it was 480 pg/mL. In addition, the IC5 in the series with A-431 [5] came out at 3 µM.

Consider `COc1cc2ncnc(Nc3ccc(F)c(Cl)c3)c2cc1OCCCN1CCOCC1` [GEFITINIB], for which the area under the curve AUC(0-inf) in [6] was determined as 7800 ng·h/mL. The same molecule displayed a Vdss in series [7] of 5.93 L/kg. Further, the t1/2 was 3.85 h in series [8] and 0.3752 h in series [9]. Besides, the AUC(0-t) in [10] is 7720 ng·h/mL. For the same molecule, in series [11], the MRT last was 4.54 h.

Consider `C#Cc1cccc(Nc2ncnc3cc(OC)c(OCCCN4CCOCC4)cc23)c1`, for which the AUC(0-inf) in series [6] turned out to be 6150 ng·h/mL. For the same molecule, the values for the IC50 (in series [12]; with PC-9; with A-431 [13]) were 1.23 nM, 100 nM and under 100 nM, respectively. Besides, in series [10], the AUC(0-t) turned out to be 6110 ng·h/mL. In addition, the MRT last in series [11] was determined as 3.96 h.

For `CCN(CC)CCNCc1ccc(-c2ccc3ncnc(Nc4ccc(OCc5cccc(F)c5)c(Cl)c4)c3c2)o1`, the IC50 was found to be 6670 nM in the series with SW480, 5460 nM in the series on A549 [14], 9790 nM in the series on NCI-H1975 [15] and 2210 nM with A-431 [16].

`C=CC(=O)Nc1ccccc1Nc1ncnc2cc(OC)c(OCCN3CCOCC3)cc12`: the IC50 with NCI-H1975 [17] is 8700 nM; in the series “cells”, 34000 nM; in the series with A-431 [18] it was 13400 nM; in series [19], 4.3 nM; in the series with A549 [3] it was 32400 nM; in the series with HCC827, 650 nM.

For the molecule `CCCN(c1ccc(F)c(Cl)c1)c1ncnc2cc(OC)c(OCCCN3CCOCC3)cc12`, the IC50 with A549 [20] amounted to 10900 nM; in series [21], 21.4 nM; in the series with A-431 [22] it was 1680 nM; in the series on MDA-MB-231 [23] it was 10200 nM.

For the molecule `O=C(N/N=C/c1cnc(N2CCCC2)nc1)Nc1cc2c(Nc3ccc(F)c(Cl)c3)ncnc2cc1O[C@H]1CCOC1`, the IC50 in the series with MCF7 amounted to 2370 nM; in the series with HepG2, 4630 nM; in series [24] it was 8.4 nM; in series [25], 6.3 nM; in the series on A549 [3], 5900 nM.

Regarding `Cc1ccc(NC(=O)CSc2nc3cc4ccccc4cc3c(=O)n2-c2ccc(S(N)(=O)=O)cc2)cc1C`, the IC50 in the series on MDA-MB-231 [26] came out at 310 nM. At Caspase-3 (Homo sapiens), this molecule gave an Activity of 546 pg/mL.

Broadly, the IC50 is the point on the concentration scale where inhibition reaches its midpoint. The AUC(0-inf) is the area under the concentration-time curve extrapolated to infinity. A higher AUC(0-inf) goes with more exposure. In general, Vdss refers to the apparent volume that relates the amount in the body to the concentration in plasma or blood. A low value points to confinement near the circulation. What is called AUC(0-t) is exposure summed from dosing to a finite time, without extrapolation to infinity. Higher therefore signals high exposure. A word on the MRT last: it is a mean duration of stay, worked out from the concentration-time curve.
